{"source": "patent US5945453A", "about": "“Benzoylphenylurea insecticides to control cockroaches” (Dow AgroSciences LLC, priority 1997, dated 1999)", "assay_type_in_all_cases": "in vivo", "key": {"[1]": {"tested_on": "Subterranean Termite (Reticulitermes flavipes)", "assay": "Limited exposure (7 days) with mortality determined at 14, 28, 42, and 56 days", "details": "for LT50 (days) for 10000 ppm treatment: limited exposure (7 days); for speed of activity, Compound 1 versus hexaflumuron: limited exposure", "from_the_text": "(§1) Subterranean Termite (Reticulitermes flavipes)\nLimited exposure (7 days) with mortality determined at 14, 28, 42, and 56 days"}, "[2]": {"tested_on": "Cat Flea (Ctenocephalides felis)", "assay": "Continuous exposure of larvae to treated media, impact on subsequent adult emergence", "details": "for LC50 / LC90: continuous exposure of larvae, adult emergence", "from_the_text": "Cat Flea (Ctenocephalides felis)\nContinuous exposure of larvae to treated media, impact on subsequent adult emergence"}, "[3]": {"tested_on": "Subterranean Termite (Reticulitermes flavipes)", "assay": "Continuous exposure (56 days) to treated paper", "details": "for performance versus hexaflumuron: Eastern Subterranean termite", "from_the_text": "as §1\n(§2) Continuous exposure (56 days) to treated paper"}, "[4]": {"tested_on": "German cockroach 2nd instars (Blattella germanica)", "assay": "Limited ingestion exposure (48 hr) to treated cornmeal", "details": "for LC50, low / LC50, high: 48 hr limited exposure; for LC50, low: 'low' column (also holds the value where only one is printed); for potency versus hexaflumuron: limited exposure; for LC50, high: 'high' column", "from_the_text": "(§3) German cockroach 2nd instars (Blattella germanica)\nLimited ingestion exposure (48 hr) to treated cornmeal"}, "[5]": {"tested_on": "German cockroach 2nd instars (Blattella germanica)", "assay": "Continuous, low-dose ingestion exposure (treated cornmeal)", "from_the_text": "as §3\nContinuous, low-dose ingestion exposure (treated cornmeal)"}, "[6]": {"tested_on": "Red Imported Fire Ant (RIFA) (Solenopsis invicta)", "assay": "Laboratory ant bait study, 3-4 day exposure to bait, brood reduction", "details": "for Time to Achieve 50% Brood Reduction / Time to Achieve 90% Brood Reduction: RIFA, best results achieved with compound", "description": "(§4) Laboratory ant bait studies were carried out with Red Imported Fire Ant (RIFA) (Solenopsis invicta) and Pharaoh Ant (Monomorium pharaonis). Chitin synthesis inhibitors, such as the compounds of the invention, control ants by killing the molting larvae and/or pupae and potentially preventing the hatching of eggs. Because adult workers are not affected, control is measured by effects on the brood.\n(§5) The studies involved 3-4 day exposure to bait. These limited exposure studies more accurately represent real world bait availability than continuous exposure."}, "[7]": {"tested_on": "Subterranean Termite (Reticulitermes virginicus)", "assay": "Continuous exposure (56 days) to treated paper", "details": "for LT50 (days) for 200 ppm trt / LC50 / speed of action versus hexaflumuron: continuous exposure", "from_the_text": "Subterranean Termite (Reticulitermes virginicus)\nas §2"}, "[8]": {"tested_on": "Daphnia", "assay": "Activity against Daphnia, 48 hr exposure to treated water", "from_the_text": "48 hr exposure to treated water"}, "[9]": {"tested_on": "Pharaoh Ant (Monomorium pharaonis)", "assay": "Laboratory ant bait study, 3-4 day exposure to bait, brood reduction", "details": "0.1%, best results achieved with compound", "description": "as §4, §5"}, "[10]": {"details": "Southeastern subterranean termite"}}, "data": [{"smiles": "O=C(NC(=O)c1c(F)cccc1F)Nc1cc(Cl)c(OC(F)(F)C(F)F)c(Cl)c1", "note": "[hexaflumuron, reference compound]", "values": [{"measurement": "LT50 (days) for 10000 ppm treatment", "setting": "[1]", "result": 32.9, "unit": "days"}, {"measurement": "speed of activity, Compound 1 versus hexaflumuron", "setting": "[1]", "result": "comparable in speed of activity"}, {"measurement": "LC50", "setting": "[2]", "result": 65.7, "unit": "ppm"}, {"measurement": "LC90", "setting": "[2]", "result": 333.5, "unit": "ppm"}, {"measurement": "LT50 (days) for 200 ppm trt", "setting": "[3]", "result": 25.7, "unit": "days"}, {"measurement": "LC50", "setting": "[3]; 21 days", "result": "> 200", "unit": "ppm"}, {"measurement": "LC50", "setting": "[3]; 35 days", "result": "< 0.78", "unit": "ppm"}, {"measurement": "LC50, low", "setting": "[4]; 21 days", "result": "> 10,000 ppm"}, {"measurement": "LC50, low", "setting": "[4]; 42 days", "result": "> 10,000 ppm"}, {"measurement": "LC50", "setting": "[5]; 21 days", "result": "> 200", "unit": "ppm"}, {"measurement": "LC50", "setting": "[5]; 42 days", "result": "> 200", "unit": "ppm"}, {"measurement": "Time to Achieve 50% Brood Reduction", "setting": "[6]; 0.25%", "result": 4, "unit": "wks"}, {"measurement": "Time to Achieve 90% Brood Reduction", "setting": "[6]; 0.25%", "result": 10, "unit": "wks"}, {"measurement": "LT50 (days) for 200 ppm trt", "setting": "[7]", "result": 16.3, "unit": "days"}, {"measurement": "LC50", "setting": "[7]; 21 days", "result": 28.8, "unit": "ppm"}, {"measurement": "LC50", "setting": "[7]; 35 days", "result": "< 0.78", "unit": "ppm"}]}, {"smiles": "CCN(C(=O)Nc1cc(Cl)c(OC(F)(F)C(F)C(F)(F)F)c(Cl)c1)C(=O)c1c(F)cccc1F", "note": "(stereo not drawn) [Compound 2, N-[3,5-Dichloro-4-(1,1,2,3,3,3-hexafluoropropoxy)phenyl]-N'-(2,6-difluorobenzoyl)-N'-ethyl urea]", "values": [{"measurement": "LC50", "setting": "[2]", "result": 329.4, "unit": "ppm"}, {"measurement": "LC90", "setting": "[2]", "result": "> 1000", "unit": "ppm"}, {"measurement": "LT50 (days) for 200 ppm trt", "setting": "[3]", "result": 34.6, "unit": "days"}, {"measurement": "LC50", "setting": "[3]; 21 days", "result": "> 200", "unit": "ppm"}, {"measurement": "LC50", "setting": "[3]; 35 days", "result": 22.5, "unit": "ppm"}, {"measurement": "performance versus hexaflumuron", "setting": "[3]", "result": "no performance advantage"}, {"measurement": "LC50, low", "setting": "[4]; 21 days", "result": 192.0, "unit": "ppm"}, {"measurement": "potency versus hexaflumuron", "setting": "[4]", "result": "far more potent than hexaflumuron"}, {"measurement": "activity against Daphnia versus Compound 1 or hexaflumuron", "setting": "[8]", "result": "far less active against Daphnia than were Compound 1 or hexaflumuron"}, {"measurement": "potency versus hexaflumuron", "setting": "[5]", "result": "far superior to hexaflumuron"}, {"measurement": "LC50", "setting": "[5]; 21 days", "result": 9.3, "unit": "ppm"}, {"measurement": "LC50", "setting": "[5]; 42 days", "result": 5.4, "unit": "ppm"}]}, {"smiles": "O=C(NC(=O)c1c(F)cccc1F)Nc1cc(Cl)c(OC(F)(F)C(F)C(F)(F)F)c(Cl)c1", "note": "(stereo not drawn) [Compound 1, N-[3,5-Dichloro-4-(1,1,2,3,3,3-hexafluoropropoxy)phenyl]-N'-(2,6-difluorobenzoyl) urea]", "values": [{"measurement": "LT50 (days) for 10000 ppm treatment", "setting": "[1]", "result": 34.5, "unit": "days"}, {"measurement": "speed of activity, Compound 1 versus hexaflumuron", "setting": "[1]", "result": "comparable in speed of activity"}, {"measurement": "LC50", "setting": "[2]", "result": 8.6, "unit": "ppm"}, {"measurement": "LC90", "setting": "[2]", "result": 12.8, "unit": "ppm"}, {"measurement": "activity versus hexaflumuron", "setting": "[2]; fleas", "result": "far more active against fleas than was hexaflumuron"}, {"measurement": "LT50 (days) for 200 ppm trt", "setting": "[3]", "result": 32.9, "unit": "days"}, {"measurement": "LC50", "setting": "[3]; 21 days", "result": "> 200", "unit": "ppm"}, {"measurement": "LC50", "setting": "[3]; 35 days", "result": "< 0.78", "unit": "ppm"}, {"measurement": "performance versus hexaflumuron", "setting": "[3]", "result": "no performance advantage"}, {"measurement": "LC50, high", "setting": "[4]; 21 days", "result": 52.7, "unit": "ppm"}, {"measurement": "LC50, low", "setting": "[4]; 21 days", "result": "< 1.0", "unit": "ppm"}, {"measurement": "LC50, high", "setting": "[4]; 42 days", "result": 30.1, "unit": "ppm"}, {"measurement": "LC50, low", "setting": "[4]; 42 days", "result": "< 1.0", "unit": "ppm"}, {"measurement": "potency versus hexaflumuron", "setting": "[4]", "result": "far more potent than hexaflumuron"}, {"measurement": "potency versus hexaflumuron", "setting": "[5]", "result": "far superior to hexaflumuron"}, {"measurement": "LC50", "setting": "[5]; 21 days", "result": 14.5, "unit": "ppm"}, {"measurement": "LC50", "setting": "[5]; 42 days", "result": "< 0.23", "unit": "ppm"}, {"measurement": "Time to Achieve 50% Brood Reduction", "setting": "[6]; 0.1%", "result": "2-3 wks"}, {"measurement": "Time to Achieve 90% Brood Reduction", "setting": "[6]; 0.1%", "result": 4, "unit": "wks"}, {"measurement": "potency versus hexaflumuron", "setting": "[6]; short exposure study with RIFA", "result": "significantly more potent than hexaflumuron"}, {"measurement": "Time to Achieve 50% Brood Reduction", "setting": "[9]", "result": 2, "unit": "wks"}, {"measurement": "Time to Achieve 90% Brood Reduction", "setting": "[9]", "result": 4, "unit": "wks"}, {"measurement": "LT50 (days) for 200 ppm trt", "setting": "[7]", "result": 10.2, "unit": "days"}, {"measurement": "LC50", "setting": "[7]; 21 days", "result": 3.5, "unit": "ppm"}, {"measurement": "LC50", "setting": "[7]; 35 days", "result": "< 0.78", "unit": "ppm"}, {"measurement": "speed of action versus hexaflumuron", "setting": "[7]; [10]", "result": "faster acting that hexaflumuron"}]}, {"smiles": "CCN(C(=O)NC(=O)c1c(F)cccc1F)c1cc(Cl)c(OC(F)(F)C(F)C(F)(F)F)c(Cl)c1", "note": "(stereo not drawn) [Compound 3, N-[3,5-Dichloro-4-(1,1,2,3,3,3-hexafluoro-propoxy)phenyl]-N'-(2,6-difluorobenzoyl)-N-ethylurea]", "values": [{"measurement": "LC50", "setting": "[2]", "result": 78.0, "unit": "ppm"}, {"measurement": "LC90", "setting": "[2]", "result": 460.7, "unit": "ppm"}, {"measurement": "performance versus hexaflumuron", "setting": "[3]", "result": "no performance advantage"}, {"measurement": "LC50, low", "setting": "[4]; 21 days", "result": 52.2, "unit": "ppm"}, {"measurement": "LC50, low", "setting": "[4]; 42 days", "result": 30.9, "unit": "ppm"}, {"measurement": "potency versus hexaflumuron", "setting": "[4]", "result": "far more potent than hexaflumuron"}, {"measurement": "activity against Daphnia versus Compound 1 or hexaflumuron", "setting": "[8]", "result": "far less active against Daphnia than were Compound 1 or hexaflumuron"}, {"measurement": "potency versus hexaflumuron", "setting": "[5]", "result": "far superior to hexaflumuron"}, {"measurement": "LC50", "setting": "[5]; 21 days", "result": 1.3, "unit": "ppm"}, {"measurement": "LC50", "setting": "[5]; 42 days", "result": 0.78, "unit": "ppm"}, {"measurement": "LT50 (days) for 200 ppm trt", "setting": "[7]", "result": 9.7, "unit": "days"}, {"measurement": "potency versus hexaflumuron", "setting": "[7]; 21 days of exposure, Southeastern subterranean termite", "result": "more potent at 21 days of exposure"}, {"measurement": "LC50", "setting": "[7]; 21 days", "result": 62.4, "unit": "ppm"}, {"measurement": "LC50", "setting": "[7]; 35 days", "result": "< 0.78", "unit": "ppm"}, {"measurement": "speed of action versus hexaflumuron", "setting": "[7]; [10]", "result": "faster acting that hexaflumuron"}]}]}
